In patent US20240269139A1, “COMPOUNDS FOR TARGETED PROTEIN DEGRADATION OF KINASES” (DANA-FARBER CANCER INSTITUTE, INC., priority 2020, published 2024):
Where “and” joins values, the source holds several entries; their conditions need not be identical. Equal entries are not always repeated. Where two headings read alike, the source gives them in different places.

Tests used:
Type in all cases: cell-based
[1] = target: T1, protein kinases (human kinome) (Homo sapiens, UniProt O14965)
T1 sequence (O14965 1-403): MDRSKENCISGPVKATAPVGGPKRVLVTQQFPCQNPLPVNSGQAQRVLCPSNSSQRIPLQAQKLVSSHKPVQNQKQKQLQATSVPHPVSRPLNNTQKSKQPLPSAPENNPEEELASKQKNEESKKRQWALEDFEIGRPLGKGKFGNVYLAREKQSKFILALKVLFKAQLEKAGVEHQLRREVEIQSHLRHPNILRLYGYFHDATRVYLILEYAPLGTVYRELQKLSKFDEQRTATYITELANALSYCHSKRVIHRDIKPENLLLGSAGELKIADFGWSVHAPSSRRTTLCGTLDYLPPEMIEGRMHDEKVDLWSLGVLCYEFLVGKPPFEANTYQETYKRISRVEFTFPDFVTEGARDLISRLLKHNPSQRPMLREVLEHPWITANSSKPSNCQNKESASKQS

[2] = target: protein kinases (human kinome) (Homo sapiens, UniProt P30291); settings: for logFC of WEE1: WEE1 P30291-1
Sequence of protein kinases (human kinome) (Homo sapiens, UniProt P30291) (P30291 whole entry): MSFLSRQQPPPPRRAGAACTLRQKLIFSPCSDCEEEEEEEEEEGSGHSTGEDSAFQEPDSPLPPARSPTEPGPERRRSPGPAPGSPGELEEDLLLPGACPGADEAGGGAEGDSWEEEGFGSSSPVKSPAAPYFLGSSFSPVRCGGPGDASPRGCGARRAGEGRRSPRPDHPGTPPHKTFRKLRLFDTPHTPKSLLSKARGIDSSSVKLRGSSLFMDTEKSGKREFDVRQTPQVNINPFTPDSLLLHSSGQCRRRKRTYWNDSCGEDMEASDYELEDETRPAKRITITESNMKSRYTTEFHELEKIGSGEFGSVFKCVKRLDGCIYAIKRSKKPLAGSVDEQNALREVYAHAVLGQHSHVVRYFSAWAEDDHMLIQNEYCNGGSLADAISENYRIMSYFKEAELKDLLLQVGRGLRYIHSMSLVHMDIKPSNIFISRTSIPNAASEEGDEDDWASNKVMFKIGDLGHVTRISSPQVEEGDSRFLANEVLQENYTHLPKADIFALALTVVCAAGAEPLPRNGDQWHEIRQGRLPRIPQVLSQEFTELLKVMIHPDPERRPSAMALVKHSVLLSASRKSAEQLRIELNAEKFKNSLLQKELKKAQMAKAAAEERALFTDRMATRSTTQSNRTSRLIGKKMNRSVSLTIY

[3] = target: T2, protein kinases (human kinome) (Homo sapiens, UniProt O75385); settings: for logFC: ULK1 (O75385) protein abundance, degrader vs DMSO, down; for logFC ULK1: ULK1 O75385
T2 sequence (O75385 1-1050): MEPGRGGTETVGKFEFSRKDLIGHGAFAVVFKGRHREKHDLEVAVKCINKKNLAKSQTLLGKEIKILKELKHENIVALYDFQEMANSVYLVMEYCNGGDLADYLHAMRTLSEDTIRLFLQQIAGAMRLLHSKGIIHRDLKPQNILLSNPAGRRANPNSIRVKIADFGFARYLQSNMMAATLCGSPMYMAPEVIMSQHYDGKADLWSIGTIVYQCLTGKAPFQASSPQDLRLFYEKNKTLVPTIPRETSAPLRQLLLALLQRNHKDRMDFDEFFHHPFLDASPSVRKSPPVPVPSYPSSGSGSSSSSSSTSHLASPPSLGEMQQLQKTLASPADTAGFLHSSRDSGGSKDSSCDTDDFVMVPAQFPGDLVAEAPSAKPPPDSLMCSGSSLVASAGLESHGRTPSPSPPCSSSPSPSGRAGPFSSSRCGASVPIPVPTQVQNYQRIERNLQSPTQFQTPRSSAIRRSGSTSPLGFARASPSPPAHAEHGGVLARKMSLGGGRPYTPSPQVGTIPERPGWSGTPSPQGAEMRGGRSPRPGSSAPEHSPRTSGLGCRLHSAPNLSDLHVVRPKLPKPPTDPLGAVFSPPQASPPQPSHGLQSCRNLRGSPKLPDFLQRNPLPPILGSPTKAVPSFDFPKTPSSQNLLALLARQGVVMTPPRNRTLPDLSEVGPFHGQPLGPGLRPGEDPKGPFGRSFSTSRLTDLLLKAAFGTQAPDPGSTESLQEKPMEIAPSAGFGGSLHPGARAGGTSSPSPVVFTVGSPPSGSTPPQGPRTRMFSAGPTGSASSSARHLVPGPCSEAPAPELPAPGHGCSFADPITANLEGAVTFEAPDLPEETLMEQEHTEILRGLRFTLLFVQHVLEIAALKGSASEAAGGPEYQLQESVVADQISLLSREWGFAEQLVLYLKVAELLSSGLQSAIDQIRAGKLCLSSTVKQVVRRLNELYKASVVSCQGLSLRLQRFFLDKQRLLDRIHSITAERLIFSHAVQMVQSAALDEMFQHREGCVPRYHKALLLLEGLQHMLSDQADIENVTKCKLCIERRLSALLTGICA

[4] = target: protein kinases (human kinome) (Homo sapiens, UniProt Q9H0K1); settings: for logFC of SIK2: Accession Q9H0K1; for logFC SIK2 (Q9H0K1): direction of change down
Sequence of protein kinases (human kinome) (Homo sapiens, UniProt Q9H0K1) (Q9H0K1 whole entry): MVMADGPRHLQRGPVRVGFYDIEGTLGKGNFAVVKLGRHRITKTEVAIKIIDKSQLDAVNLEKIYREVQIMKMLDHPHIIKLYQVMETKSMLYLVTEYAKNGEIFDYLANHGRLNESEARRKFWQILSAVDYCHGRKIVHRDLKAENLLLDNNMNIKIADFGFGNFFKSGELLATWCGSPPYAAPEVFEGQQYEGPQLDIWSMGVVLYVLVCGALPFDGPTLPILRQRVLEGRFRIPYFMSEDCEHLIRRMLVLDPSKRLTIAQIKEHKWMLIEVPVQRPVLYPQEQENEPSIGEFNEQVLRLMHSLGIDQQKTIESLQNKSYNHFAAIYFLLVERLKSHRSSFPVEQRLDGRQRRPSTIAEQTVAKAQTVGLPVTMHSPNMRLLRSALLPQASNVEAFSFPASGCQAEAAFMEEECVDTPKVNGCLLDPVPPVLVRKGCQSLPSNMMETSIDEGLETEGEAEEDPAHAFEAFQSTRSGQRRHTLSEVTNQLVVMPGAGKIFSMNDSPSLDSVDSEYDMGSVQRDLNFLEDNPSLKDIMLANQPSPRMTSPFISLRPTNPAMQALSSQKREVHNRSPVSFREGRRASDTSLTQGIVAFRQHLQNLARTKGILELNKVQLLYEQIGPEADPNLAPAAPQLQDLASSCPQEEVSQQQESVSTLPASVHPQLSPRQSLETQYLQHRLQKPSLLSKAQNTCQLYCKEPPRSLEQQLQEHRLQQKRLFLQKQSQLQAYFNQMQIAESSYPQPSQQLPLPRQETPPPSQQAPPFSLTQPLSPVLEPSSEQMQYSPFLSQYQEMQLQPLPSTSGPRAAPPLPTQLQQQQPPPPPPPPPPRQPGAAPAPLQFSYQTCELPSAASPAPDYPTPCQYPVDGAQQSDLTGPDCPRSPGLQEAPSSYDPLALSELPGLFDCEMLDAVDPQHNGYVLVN

[5] = system: protein kinases (human kinome)
[6] = target: protein kinases (human kinome) (Homo sapiens, UniProt Q2M2I8)
Sequence of protein kinases (human kinome) (Homo sapiens, UniProt Q2M2I8) (Q2M2I8 whole entry): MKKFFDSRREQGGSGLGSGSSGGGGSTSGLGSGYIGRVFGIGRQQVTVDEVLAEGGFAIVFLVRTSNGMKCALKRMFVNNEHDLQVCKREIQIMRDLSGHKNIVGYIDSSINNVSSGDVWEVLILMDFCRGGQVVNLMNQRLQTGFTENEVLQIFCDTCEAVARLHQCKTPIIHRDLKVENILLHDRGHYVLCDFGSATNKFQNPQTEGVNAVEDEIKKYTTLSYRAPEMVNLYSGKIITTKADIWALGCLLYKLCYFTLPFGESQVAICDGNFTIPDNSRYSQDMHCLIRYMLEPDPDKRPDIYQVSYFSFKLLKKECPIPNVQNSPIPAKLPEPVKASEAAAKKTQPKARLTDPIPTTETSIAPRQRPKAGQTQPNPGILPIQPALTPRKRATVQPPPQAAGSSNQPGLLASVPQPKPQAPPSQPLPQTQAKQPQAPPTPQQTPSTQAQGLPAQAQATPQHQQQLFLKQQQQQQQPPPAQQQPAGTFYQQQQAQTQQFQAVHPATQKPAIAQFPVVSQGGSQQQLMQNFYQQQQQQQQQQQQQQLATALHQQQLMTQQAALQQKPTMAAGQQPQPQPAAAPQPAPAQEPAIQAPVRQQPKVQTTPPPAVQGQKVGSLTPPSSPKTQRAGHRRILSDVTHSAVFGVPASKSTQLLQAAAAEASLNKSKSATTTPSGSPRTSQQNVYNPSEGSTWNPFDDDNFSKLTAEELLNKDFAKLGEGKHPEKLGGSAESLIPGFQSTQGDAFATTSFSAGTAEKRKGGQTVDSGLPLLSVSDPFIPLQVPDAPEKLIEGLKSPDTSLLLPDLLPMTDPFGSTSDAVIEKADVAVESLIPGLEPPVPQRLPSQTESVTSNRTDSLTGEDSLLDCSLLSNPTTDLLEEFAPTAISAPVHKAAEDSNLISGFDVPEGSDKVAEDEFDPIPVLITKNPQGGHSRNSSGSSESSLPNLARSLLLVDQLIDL

[7] = target: protein kinases (human kinome) (Homo sapiens, UniProt P16591); settings: for logFC of FER (P16591-1): down; for logFC of FER: FER P16591-1
Sequence of protein kinases (human kinome) (Homo sapiens, UniProt P16591) (P16591 whole entry): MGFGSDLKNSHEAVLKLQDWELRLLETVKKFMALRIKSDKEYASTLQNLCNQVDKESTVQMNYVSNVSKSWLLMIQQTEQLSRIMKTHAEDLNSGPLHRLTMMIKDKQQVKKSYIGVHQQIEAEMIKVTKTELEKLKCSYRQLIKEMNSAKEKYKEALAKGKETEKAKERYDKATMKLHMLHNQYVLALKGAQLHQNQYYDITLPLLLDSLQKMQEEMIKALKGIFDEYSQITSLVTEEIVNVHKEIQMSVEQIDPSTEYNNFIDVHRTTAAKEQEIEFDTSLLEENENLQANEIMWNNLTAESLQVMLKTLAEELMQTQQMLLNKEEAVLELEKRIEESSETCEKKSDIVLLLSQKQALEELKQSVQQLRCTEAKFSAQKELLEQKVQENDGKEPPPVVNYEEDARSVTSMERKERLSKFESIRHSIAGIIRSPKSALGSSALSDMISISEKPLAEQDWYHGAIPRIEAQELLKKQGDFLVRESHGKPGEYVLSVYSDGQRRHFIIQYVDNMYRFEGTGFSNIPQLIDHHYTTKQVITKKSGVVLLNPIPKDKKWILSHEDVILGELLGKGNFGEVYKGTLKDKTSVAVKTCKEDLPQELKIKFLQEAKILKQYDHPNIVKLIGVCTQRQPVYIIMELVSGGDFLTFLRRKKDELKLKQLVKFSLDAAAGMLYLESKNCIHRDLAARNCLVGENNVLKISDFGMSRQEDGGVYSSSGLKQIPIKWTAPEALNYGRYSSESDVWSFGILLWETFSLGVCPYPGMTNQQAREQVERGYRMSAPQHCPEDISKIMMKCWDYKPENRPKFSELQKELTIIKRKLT

[8] = AURKB Q96GD4-5, experiment wp134
[9] = CDK9 (P50750-2) protein abundance, degrader vs DMSO, down
[10] = AURKB Q96GD4-5, experiment wp108
[11] = AURKB Q96GD4-5, experiment wp131

## O=C(COc1cccc2c1C(=O)N(C1CCC(=O)NC1=O)C2=O)NCCCCCCCN1CCc2cc(Nc3ncc(C4CC4)c(NCCCNC(=O)C4CCC4)n3)ccc2C1 (centres unmarked) [BSJ.04.178]
[1]; experiment wp134
  logFC AURKA (O14965): −0.4772
[2]; experiment wp134
  logFC of WEE1: −0.5688
  logFC WEE1 (P30291-1): −0.5688
[3]
  logFC: −1.683
[3]; experiment wp134
  logFC ULK1: −1.683
[4]; experiment wp134
  logFC of SIK2: −1.351
  logFC SIK2 (Q9H0K1): −1.351
[5]; [8]
  logFC: −0.5074
  logFC AURKB: −0.5074
[5]; [9]
  logFC: −1.43
[5]; MARK3 (P27448-5), experiment wp134
  logFC: −0.4977
[5]; experiment wp134
  logFC CDK9 (P50750-2): −1.43
[5]; experiment wp134, direction of change down
  logFC MARK3 (P27448-5): −0.4977
[6]; AAK1 (Q2M218-1), experiment wp134, down
  logFC AAK1: −3.342
[6]; AAK1, accession Q2M218-1, experiment wp134, direction of change down
  logFC AAK1: −3.342

## CS(=O)(=O)Nc1cccc(-c2csc3cnc(Nc4ccc(N5CCN(CCCCCOc6cccc7c6C(=O)N(C6CCC(=O)NC6=O)C7=O)CC5)cc4)nc23)c1 (centres unmarked) [DB0614, N-(3-(2-((4-(4-(5-((2-(2,6-Dioxopiperidin-3-yl)-1,3-dioxoisoindolin-4-yl)oxy)pentyl)piperazin-1-yl)phenyl)amino)thieno[3,2-d]pyrimidin-7-yl)phenyl)methanesulfonamide]
[1]; experiment wp045
  logFC AURKA (O14965): −0.385
[1]; experiment wp117
  logFC AURKA (O14965): −0.4547
[2]; experiment wp117
  logFC of WEE1: −1.777
  logFC WEE1 (P30291-1): −1.777
[2]; experiment wp045
  logFC WEE1 (P30291-1): −1.876
[3]
  logFC: −0.869 and −1.105
[3]; experiment wp045
  logFC ULK1: −0.869
[3]; experiment wp117
  logFC ULK1: −1.105
[4]; experiment wp045
  logFC of SIK2: −0.5292
[4]; experiment wp117
  logFC of SIK2: −0.3766
  logFC SIK2 (Q9H0K1): −0.3766
[4]; SIK2 (Q9H0K1), experiment wp045, down
  logFC SIK2: −0.5292
[5]; CAMKK1 (Q8N5S9-2), experiment wp045
  logFC: −0.6487
[5]; Experiment wp045
  logFC of CAMKK1 (Q8N5S9-2): −0.6487
[5]; Experiment wp045, direction down
  logFC MAPK8 (P45983-4): −0.6882
[5]; Experiment wp117
  logFC of MAPK8 (P45983-2): −0.6328
[5]; Experiment wp117, direction down
  logFC MAPK8 (P45983-2): −0.6328
[5]; LCK, accession P06239-3, experiment wp045, direction of change down
  logFC LCK: −0.33
[5]; MAPK8 P45983-4, experiment wp045
  logFC MAPK8: −0.6882
[5]; PTK2B (Q14289-2), experiment wp117, direction down
  logFC: −1.203
[5]; PTK2B, accession Q14289-2, experiment wp117, direction of change down
  logFC PTK2B: −1.203
[5]; as stated for the structure in the embodiments
  kinases the bifunctional compound degrades: AAK1, AURKA, BMP2K, CAMKK1, CDK16, CDK4, CDK6, EIF2AK2, FER, GAK, LCK, LIMK2, MAP3K11, MAPK8, MAPK9, NEK9, PLK4, PTK2B, SIK2, STK17A, STK17B, ULK1, ULK3, and WEE1
[5]; experiment wp045, direction of change down
  logFC LCK (P06239-3): −0.33
[5]; experiment wp117
  logFC CDK16 (Q00536-2): −0.5528
[5]; kinases significantly downregulated vs DMSO (fold change cutoff −1.25, P-value<0.01), ≤8 h, 0.1-5 μM degrader, 7 cell lines
  Kinase hits: AAK1, AURKA, BMP2K, CAMKK1, CDK16, CDK4, CDK6, EIF2AK2, FER, GAK, LCK, LIMK2, MAP3K11, MAPK8, MAPK9, NEK9, PLK4, PTK2B, SIK2, STKI7A, STKI7B, ULK1, ULK3, WEE1
[5]; number of degraded kinases per library compound
  Total no. kinase hits: 24
[7]; Experiment wp045
  logFC of FER (P16591-1): −0.7641
[7]; Experiment wp117
  logFC of FER (P16591-1): −0.7725
[7]; experiment wp045
  logFC of FER: −0.7641
[7]; experiment wp117
  logFC of FER: −0.7725
[6]; AAK1 (Q2M218-1), experiment wp045, down
  logFC AAK1: −1.863
[6]; AAK1 (Q2M218-1), experiment wp117, down
  logFC AAK1: −1.652
[6]; AAK1, accession Q2M218-1, experiment wp045, direction of change down
  logFC AAK1: −1.863
[6]; AAK1, accession Q2M218-1, experiment wp117, direction of change down
  logFC AAK1: −1.662

## Cc1ncsc1-c1ccc([C@H](C)NC(=O)[C@@H]2C[C@@H](O)CN2C(=O)[C@@H](NC(=O)CCOCCOCCN2CCN(c3ccc(Nc4ncc(Cl)c(Nc5ccccc5S(=O)(=O)C(C)C)n4)cc3)CC2)C(C)(C)C)cc1 [FMF.06.098.1]
[1]; experiment wp114
  logFC AURKA (O14965): −0.4151
[1]; experiment wp131
  logFC AURKA (O14965): −0.3471
[2]; Experiment wp108
  logFC WEE1 (P30291-1): −1.98
[2]; experiment wp108
  logFC of WEE1: −1.98
[2]; experiment wp131
  logFC of WEE1: −2.183
  logFC WEE1 (P30291-1): −2.183
[3]
  logFC: −0.688 and −0.9629
[3]; experiment wp108
  logFC ULK1: −0.688
[3]; experiment wp131
  logFC ULK1: −0.9629
[4]; experiment wp114
  logFC of SIK2: −0.4985
[4]; experiment wp131
  logFC of SIK2: −0.602
  logFC SIK2 (Q9H0K1): −0.602
[4]; Experiment wp114
  logFC SIK2 (Q9H0K1): −0.4985
[5]; [10]
  logFC: −0.5246
  logFC AURKB: −0.5246
[5]; [11]
  logFC: −0.6726
  logFC AURKB: −0.6726
[5]; Accession O60566-3, experiment wp108, direction down
  logFC BUB1B: −0.4426
[5]; Accession O60566-3, experiment wp131, direction down
  logFC BUB1B: −0.4232
[5]; Accession P48730-2, experiment wp108, direction down
  logFC CSNK1D: −0.3812
[5]; Accession P48730-2, experiment wp114, direction down
  logFC CSNK1D: −0.4039
[5]; BUB1B (O60566-3), experiment wp108
  logFC BUB1B: −0.4426
[5]; BUB1B (O60566-3), experiment wp131
  logFC BUB1B: −0.4232
[5]; [9]
  logFC: −0.7233 and −0.6791
[5]; CSNK1D P48730-2, experiment wp108
  logFC CSNK1D: −0.3812
[5]; CSNK1D P48730-2, experiment wp114
  logFC CSNK1D: −0.4039
[5]; Experiment wp108
  logFC CDK9 (P50750-2): −0.7233
[5]; Experiment wp131, direction down
  logFC PRKAA1 (Q13131-2): −0.3695
[5]; FER (P16591-3), experiment wp114, direction down
  logFC: −0.3986
[5]; FER P16591-3, experiment wp114
  logFC of FER: −0.3986
[5]; experiment wp108, direction of change down
  logFC FGFR1 (P11362-21): −0.4121
[5]; experiment wp131
  logFC ABL2 (P42684-5): −0.6443
  logFC CDK9 (P50750-2): −0.6791
  logFC PRKAA1 (Q13131-2): −0.3695
  logFC of ABL2 (P42684-5): −0.6443
[5]; protein FGFR1 (P11362-21), experiment wp108, down
  logFC FGFR1: −0.4121
[7]; Experiment wp108
  logFC of FER (P16591-1): −0.3577
[7]; Experiment wp131
  logFC of FER (P16591-1): −0.4871
[7]; experiment wp108
  logFC of FER: −0.3577
[7]; experiment wp131
  logFC of FER: −0.4871
[6]; AAK1 (Q2M218-1), experiment wp108, down
  logFC AAK1: −0.4346
[6]; AAK1 (Q2M218-1), experiment wp114, down
  logFC AAK1: −0.485
[6]; AAK1 (Q2M218-1), experiment wp131, down
  logFC AAK1: −0.7293
[6]; AAK1, accession Q2M218-1, experiment wp108, direction of change down
  logFC AAK1: −0.4346
[6]; AAK1, accession Q2M218-1, experiment wp114, direction of change down
  logFC AAK1: −0.485
[6]; AAK1, accession Q2M218-1, experiment wp131, direction of change down
  logFC AAK1: −0.7293
